Assay results from ChEMBL document CHEMBL1131814, “Structure-activity relationship of N-methyl-N-aralkyl-peptidylamines as novel N-type calcium channel blockers” (Bioorg Med Chem Lett, 1999).

Assays:
[1] = target: Voltage-dependent N-type calcium channel subunit alpha-1B (Homo sapiens, UniProt Q00975); experiment: Inhibition of N-type calcium channels in IMR-32 human neuroblastoma cells; type: cell-based
[2] = tested on: Mus musculus; experiment: Percentage of protection from audiogenic tonic seizures in DBA/2 mice after intravenous administration at a dose of 30 mg/kg; type: functional
[3] = tested on: Mus musculus; experiment: Percentage of protection from audiogenic tonic seizures in DBA/2 mice after intravenous administration at a dose of 10 mg/kg; type: functional

Sequence of Voltage-dependent N-type calcium channel subunit alpha-1B (Q00975 whole entry): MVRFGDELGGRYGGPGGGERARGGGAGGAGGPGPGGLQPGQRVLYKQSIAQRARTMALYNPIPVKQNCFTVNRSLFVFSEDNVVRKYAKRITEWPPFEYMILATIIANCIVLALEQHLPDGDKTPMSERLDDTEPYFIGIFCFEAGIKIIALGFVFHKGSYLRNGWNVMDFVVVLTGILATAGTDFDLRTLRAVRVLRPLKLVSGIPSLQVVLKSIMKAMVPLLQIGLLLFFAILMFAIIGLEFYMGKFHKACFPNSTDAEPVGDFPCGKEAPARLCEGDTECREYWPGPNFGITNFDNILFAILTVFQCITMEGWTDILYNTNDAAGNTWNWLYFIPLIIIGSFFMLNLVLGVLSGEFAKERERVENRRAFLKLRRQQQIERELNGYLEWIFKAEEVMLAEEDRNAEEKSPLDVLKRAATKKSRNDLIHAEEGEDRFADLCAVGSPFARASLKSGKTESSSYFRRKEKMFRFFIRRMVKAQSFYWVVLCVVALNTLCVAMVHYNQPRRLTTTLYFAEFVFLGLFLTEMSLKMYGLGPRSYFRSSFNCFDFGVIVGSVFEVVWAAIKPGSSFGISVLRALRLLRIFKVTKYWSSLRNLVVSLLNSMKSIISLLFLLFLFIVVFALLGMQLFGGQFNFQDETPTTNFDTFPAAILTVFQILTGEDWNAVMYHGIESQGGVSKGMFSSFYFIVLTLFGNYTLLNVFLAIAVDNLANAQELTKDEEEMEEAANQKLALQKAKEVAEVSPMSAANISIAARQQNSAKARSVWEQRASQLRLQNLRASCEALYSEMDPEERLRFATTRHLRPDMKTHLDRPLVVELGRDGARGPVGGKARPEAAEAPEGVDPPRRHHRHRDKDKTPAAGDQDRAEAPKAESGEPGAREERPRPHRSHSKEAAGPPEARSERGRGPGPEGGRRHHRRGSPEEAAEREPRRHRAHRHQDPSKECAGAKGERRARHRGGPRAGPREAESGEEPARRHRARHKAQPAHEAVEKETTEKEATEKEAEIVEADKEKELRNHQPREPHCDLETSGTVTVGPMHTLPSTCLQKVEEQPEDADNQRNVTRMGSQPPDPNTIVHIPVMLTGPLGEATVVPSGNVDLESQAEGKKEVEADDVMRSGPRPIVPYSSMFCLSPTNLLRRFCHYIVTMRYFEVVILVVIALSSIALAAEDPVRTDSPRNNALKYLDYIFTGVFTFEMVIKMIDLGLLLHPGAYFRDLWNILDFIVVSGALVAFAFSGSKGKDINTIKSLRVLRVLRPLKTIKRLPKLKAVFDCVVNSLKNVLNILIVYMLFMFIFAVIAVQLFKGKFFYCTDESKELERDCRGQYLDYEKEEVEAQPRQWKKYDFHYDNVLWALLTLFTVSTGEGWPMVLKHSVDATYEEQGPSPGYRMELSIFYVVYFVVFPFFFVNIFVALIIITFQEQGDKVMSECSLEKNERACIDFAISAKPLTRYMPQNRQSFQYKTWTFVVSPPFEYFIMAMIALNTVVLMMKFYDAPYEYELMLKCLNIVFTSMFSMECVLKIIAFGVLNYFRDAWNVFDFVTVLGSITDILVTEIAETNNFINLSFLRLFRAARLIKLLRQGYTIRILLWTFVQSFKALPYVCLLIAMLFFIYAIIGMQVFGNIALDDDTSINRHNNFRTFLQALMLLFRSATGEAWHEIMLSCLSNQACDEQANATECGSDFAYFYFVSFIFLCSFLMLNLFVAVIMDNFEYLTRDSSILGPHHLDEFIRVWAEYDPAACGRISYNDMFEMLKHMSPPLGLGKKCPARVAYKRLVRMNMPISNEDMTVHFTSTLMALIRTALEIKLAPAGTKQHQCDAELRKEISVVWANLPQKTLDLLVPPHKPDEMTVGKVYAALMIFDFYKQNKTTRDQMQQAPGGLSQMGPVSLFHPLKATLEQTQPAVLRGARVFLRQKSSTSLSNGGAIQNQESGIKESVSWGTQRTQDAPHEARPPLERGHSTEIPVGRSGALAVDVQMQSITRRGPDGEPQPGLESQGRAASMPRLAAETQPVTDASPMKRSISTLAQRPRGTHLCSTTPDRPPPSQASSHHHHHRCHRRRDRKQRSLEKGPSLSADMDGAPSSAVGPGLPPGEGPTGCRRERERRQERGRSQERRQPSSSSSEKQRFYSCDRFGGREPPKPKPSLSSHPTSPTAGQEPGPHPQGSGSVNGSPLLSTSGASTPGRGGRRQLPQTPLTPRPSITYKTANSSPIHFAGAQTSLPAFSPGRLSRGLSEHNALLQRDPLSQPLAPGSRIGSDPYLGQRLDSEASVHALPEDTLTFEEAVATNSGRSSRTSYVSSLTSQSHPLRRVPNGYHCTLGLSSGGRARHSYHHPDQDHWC

Compound | IC50 [1] [nM] | Protection [2] [%] | Protection [3] [%]
CC(C)C[C@@H](C(=O)N[C@@H](Cc1ccc(OC(=O)c2ccccc2)cc1)C(=O)NC(C)(C)C)N(C)Cc1ccco1 | 1600 | 60 | 
CC(C)C[C@@H](C(=O)N[C@@H](Cc1ccc(OC(=O)c2ccccc2)cc1)C(=O)NC(C)(C)C)N(C)Cc1ccccc1 | 360 |  | 
CC(C)C[C@@H](C(=O)N[C@@H](Cc1ccc(OC(=O)c2ccccc2)cc1)C(=O)NC(C)(C)C)N(C)Cc1ccc(C(C)(C)C)cc1 | 36 | 60 | 
CC(C)C[C@@H](C(=O)N[C@@H](Cc1ccc(OC(=O)c2ccccc2)cc1)C(=O)NC(C)(C)C)N(C)Cc1cccnc1 | 1700 |  | 
CC(C)C[C@@H](C(=O)N[C@@H](Cc1ccc(OC(=O)c2ccccc2)cc1)C(=O)NC(C)(C)C)N(C)CCc1ccccc1 | 1700 |  | 
CC(C)C[C@@H](C(=O)N[C@@H](Cc1ccc(OC(=O)c2ccccc2)cc1)C(=O)NC(C)(C)C)N(C)CC1CCCCC1 | 680 | 100 | 20
CC(C)C[C@@H](C(=O)N[C@@H](Cc1ccc(OC(=O)c2ccccc2)cc1)C(=O)NC(C)(C)C)N(C)CCCc1ccccc1 | 1900 |  | 
CC(C)C[C@@H](C(=O)N[C@@H](Cc1ccc(OC(=O)c2ccccc2)cc1)C(=O)NC(C)(C)C)N(C)Cc1ccccc1Cl | 560 |  | 
CC(C)C[C@@H](C(=O)N[C@@H](Cc1ccc(OC(=O)c2ccccc2)cc1)C(=O)NC(C)(C)C)N(C)Cc1cccc(Cl)c1 | 1000 |  | 

Further lines, with some results ahead:

IC50 [1] [nM] | Compound | Protection [2] [%] | Protection [3] [%]
230 | CC(C)C[C@@H](C(=O)N[C@@H](Cc1ccc(OC(=O)c2ccccc2)cc1)C(=O)NC(C)(C)C)N(C)Cc1ccc(Cl)cc1 |  | 
1000 | CC(C)C[C@@H](C(=O)N[C@@H](Cc1ccc(OC(=O)c2ccccc2)cc1)C(=O)NC(C)(C)C)N(C)Cc1ccc(O)cc1 |  | 
500 | COc1ccc(CN(C)[C@@H](CC(C)C)C(=O)N[C@@H](Cc2ccc(OC(=O)c3ccccc3)cc2)C(=O)NC(C)(C)C)cc1 | 100 | 40
130 | CC(C)C[C@@H](C(=O)N[C@@H](Cc1ccc(OC(=O)c2ccccc2)cc1)C(=O)NC(C)(C)C)N(C)Cc1ccc(Br)cc1 |  | 
280 | CC(C)C[C@@H](C(=O)N[C@@H](Cc1ccc(OC(=O)c2ccccc2)cc1)C(=O)NC(C)(C)C)N(C)Cc1ccc(N(C)C)cc1 | 80 | 
